Common to all, as to format: cell-based
One experiment relates to Escherichia coli 9217/10. The source says: (§1) All bacterial strains including S. aureus strains (M3842, M905-1, and M3850) ([22]), S. uberis strains (M100/11, BL246, and ALP8092) ([23]) and E. coli (9217/10) were isolated from bovine mastitis milk ([24]). All strains were maintained on Trypticase soy agar plates with 5% sheep blood (Becton Dickinson AG, Allschwil, Switzerland) and always freshly plated the day before the experiment. Bacterial colonies were suspended in 0.85% NaCl solution (Axon Lab AG, Baden, Switzerland) to reach an OD value of 0.5 (DensiCHECK PLUS, Biomérieux, Genève, Switzerland), corresponding to approximately 1–1.5 × 10^8 cell/ml. The minimum inhibitory concentration (MIC) of cathelicidins was determined by the broth microdilution method as previously described ([25]). Bacteria were further diluted to approximately 1 × 10^5 cells/ml in cation-adjusted Mueller-Hinton (MH) broth (Thermo Fisher Scientific). Several twofold peptide dilutions (40–0.3 µM) were prepared in a volume of 50 µl MH II broth (Becton Dickinson AG) in a round-bottom 96-well plate. Finally, 50 µl of 10^5 cells/ml were added to the peptide dilutions to reach a final concentration of 5 × 10^4 cells/ml.

Experiment [1] deals with Staphylococcus aureus M3842.
Excerpt: as §1

For experiment [2], the system named is Staphylococcus aureus M3850.
Excerpt: as §1

For experiment [3], the system named is Staphylococcus aureus M905-1.
Excerpt: as §1

Experiment [4] concerns Streptococcus uberis ALP8092.
Excerpt: as §1

Experiment [5] deals with Streptococcus uberis BL246.
Excerpt: as §1

Experiment [6] relates to Streptococcus uberis M100/11.
Excerpt: as §1

The next experiment has as its system bovine neutrophils. Description: ROS in neutrophils (CM-H2DCFDA flow cytometry). The conditions noted are these: 100 ng/ml PMA for 10 min, then 1 h culture; three animals in duplicates. How it is done: Bovine neutrophil granulocytes were isolated as previously described with a few adaptations ([20], [21]). Bovine blood sampling was performed in compliance with the Swiss animal protection law and approved by the animal welfare committee of the Canton of Bern, Switzerland, license number BE102/15. Briefly, 200 ml of blood was drawn from the jugular vein of cows at the Clinic for Ruminants (Vetsuisse Faculty, University of Bern, Switzerland) and was directly mixed with citrate-based anti-coagulant Alsever’s solution (1.55 mM of C6H12O6, 408 mM of Na3C6H5O7⋅2H2O, 1.078 mM of NaCl, and 43 mM of C6H8O7, pH 6.2). […] Neutrophils were recovered in the pellet, washed once with PBS/EDTA, counted in Trypan blue solution, and resuspended at 5 × 10^7 cells/ml in RPMI 1640 medium (Biochrom GmbH, Berlin, Germany). […] Aliquots of 5 × 10^6 neutrophils per tube were used to quantify ROS. […]
Figure 6 Cathelicidins can be detected in the supernatants of phorbol myristate acetate (PMA)-activated neutrophils. […] (A) Forward and side scatter characteristics of neutrophils stimulated with PMA or left unstimulated were evaluated by flow cytometry (left). […] (B) Histogram overlay of CM-H2DCFDA fluorescence as an indicator of ROS formation. […]
(In flow cytometry, cells or beads pass a laser one at a time.)

The subject of experiment [7] is Mx1 in primary bovine turbinate epithelial cells (BT cells). Description: Mx1 induction in BT cells (western blot), nucleic acid sensing. The conditions noted are these: poly(I:C) alone, titration, 20 h, western blot (Figure S3). Here is the method: Primary bovine turbinate epithelial cells (BT cells) were obtained as previously described ([26]) and the cultures maintained in DMEM supplemented with 10% FBS, non-essential amino acids (NEAA), neomycin/bacitracin, penicillin/streptomycin (stock solutions purchased from Biochrom), and GlutaMAX (Thermo Fisher Scientific). BT cells were plated in 24-well plates at 50,000 cells/well and incubated for 18 h at 37°C in 5% CO2. For induction of Mx, cathelicidins were mixed with 100 ng/ml of poly(I:C) in a final volume of 1 ml, incubated for 10 min at room temperature, and then added to the cells. Alternatively, different dilutions of neutrophil-derived supernatants were mixed with poly(I:C) at 100 ng/ml in complete medium (DMEM with 10% FBS, NEAA, neomycin/bacitracin, penicillin/streptomycin, and GlutaMAX). Positive controls for Mx1 induction included cell treatment with 100 ng/ml of bovine rIFN-α and 1 µg/ml of poly(I:C). Cultures were further incubated at 37°C for 20 h. […]
Figure 5 Bovine myeloid antimicrobial peptide (BMAP)-27, sBAMP-27, BMAP-28, BMAP-34, and Bac1 promote nucleic acid sensing in primary epithelial cells. […] After 20 h incubation, Mx1 and β-actin were detected by western blot. […] After 20 h of culture, Mx1 and β-actin were detected by western blot. […]
(In general: In western blotting, separated proteins are transferred to a membrane and probed.)

Values after ≈ are worked out from the molar mass of the structure shown. Bridge positions count the residues as written; N and C are the ends. Ends that are not written are not given here. Peptide text beside a SMILES is read from it.

We go through eight compounds from paper PMC5285380, “Differential Ability of Bovine Antimicrobial Cathelicidins to Mediate Nucleic Acid Sensing by Epithelial Cells” (Frontiers in Immunology, 2017).

Regarding “RFRPPIRRPPIRPPFYPPFRPPIRPPIFPPIRPPFRPPLGPFP [Bac5]”, the MIC in the experiment with Escherichia coli 9217/10 was over 20 µM; in [1], over 20 µM; in [2] it was over 20 µM; in experiment [3] it was over 20 µM; in experiment [4] it was 20.00 ± 0 µM; in experiment [5] it was 6.11 ± 2.2 µM. This compound came in with an MIC in experiment [6] of 2.78 ± 0.83 µM.
On to “AGLFRRLRDSIRRGQQKILEKARRIGERIKDIFRG [BMAP-34]”, for which the minimum inhibitory concentration (MIC) in the experiment with Escherichia coli 9217/10 came to 5.00 ± 0 µM; in [1] it was 12.22 ± 4.41 µM; in [2], 10.00 ± 0 µM; in [3], 14.44 ± 5.27 µM; in experiment [4], 5.00 ± 0 µM; in [5] it was 4.17 ± 1.25 µM. Besides, the minimum inhibitory concentration (MIC) in experiment [6] is 5.00 ± 0 µM.
Consider GGLRSLGRKILRAWKKYGPIIVPIIRIG [BMAP-28], for which the MIC with Escherichia coli 9217/10 was found to be 10.00 ± 0 µM; in experiment [1] it was 13.33 ± 5 µM; in experiment [2], 17.78 ± 4.41 µM; in experiment [3] it was 14.44 ± 5.27 µM; in [4], 10.00 ± 0 µM; in [5], 10.00 ± 0 µM. Further, the MIC in experiment [6] was 10.00 ± 0 µM.
With `CCCCCCCCCCCCCC(=O)O[C@@H]1[C@@H](C)[C@@]2(O)[C@@H](C=C(CO)C[C@]3(O)C(=O)C(C)=C[C@@H]23)[C@@H]2C(C)(C)[C@]12OC(C)=O` [PMA, phorbol myristate acetate], the “fluorescence intensity of CM-H2DCFDA (ROS indicator) compared to unstimulated neutrophils” value in the experiment with bovine neutrophils is recorded as “significantly higher”.
In the case of GLPKLHFRRKKGKLVSFPLKFKFKIRL [sBMAP-27], the MIC in the experiment with Escherichia coli 9217/10 was 10.00 ± 0 µM; in experiment [1], at least 20 ± 10 µM; in [2] it was 17.78 ± 4.41 µM; in experiment [3], 20.00 ± 0 µM; in [4] it was 8.33 ± 2.5 µM; in [5], 5.56 ± 1.67 µM. This compound displayed a minimal inhibitory concentration (MIC) in experiment [6] of 5.00 ± 0 µM.
Regarding GRFKRFRKKFKKLFKKLSPVIPLLHLG [BMAP-27], the MIC with Escherichia coli 9217/10 is 2.50 ± 0 µM; in experiment [1] it was 5.00 ± 0 µM; in experiment [2], 7.22 ± 2.64 µM; in experiment [3], 8.33 ± 2.5 µM; in [4], 4.72 ± 0.83 µM; in experiment [5], 4.17 ± 1.25 µM. Further, in experiment [6], the minimum inhibitory concentration (MIC) was found to be 2.78 ± 0.83 µM.
For the compound “Polyinosinic–polycytidylic acid [poly(I:C)]”, in experiment [7], the “concentration of poly(I:C) below which induction of Mx1 was not detectable” value came to 156 ng/mL.
Consider `CC[C@H](C)[C@@H]1NC(=O)[C@H](CCCNC(=N)N)NC(=O)[C@@H](NC(=O)[C@H](CC(C)C)NC(=O)[C@@H](N)CCCNC(=N)N)CSSC[C@@H](C(=O)N[C@@H](CCCNC(=N)N)C(=O)O)NC(=O)[C@H](C(C)C)NC(=O)[C@H](CCCNC(=N)N)NC(=O)[C@H]([C@@H](C)CC)NC(=O)[C@H](C(C)C)NC(=O)[C@H](C(C)C)NC1=O` [Bac1] (H-RLCRIVVIRVCR-OH; disulfide 3-11), for which the MIC in the experiment on Escherichia coli 9217/10 was over 20 µM; in experiment [1], over 20 µM; in experiment [2] it was at least 20 ± 6.67 µM; in [3], over 20 µM; in [4], at least 20 ± 10 µM; in experiment [5] it was 20.00 ± 0 µM (≈ 29.7 µg/mL). This compound also had a minimal inhibitory concentration (MIC) in experiment [6] of 13.33 ± 5 µM (≈ 19.8 µg/mL).

As a reminder, the MIC is the lowest concentration that inhibits growth of the organism. A higher MIC goes with weaker potency.
